Laboratory results reported in the supplement of paper PMC12463676, “Small-molecule dissolution of stress granules by redox modulation benefits ALS models” (Nature Chemical Biology, 2025).

Experiments:
lipoamide = compound: NC(=O)CCCCC1CCSS1 [lipoamide]; test: thermal stability z-score vs DMSO; higher = more thermally stabilized by treatment; conditions: HeLa, lipoamide concentration 100 µM
Method: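 Cellular thermal proteome profiling in HeLa cells. Cells were treated with 100 µM lipoamide for 1 h, with or without 1 mM arsenate for a further 1 h, then heated to ten temperatures (37-66.3 °C), and soluble protein was quantified by TMT mass spectrometry relative to 0.1% DMSO controls. The thermal stability score (sum of log2 fold changes minus the abundance score) was transformed to a z-score; mean of n = 3 experiments.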

potassium arsenate = compound: O=[As]([O-])(O)O.[K+] [potassium arsenate]; test: as above; conditions: HeLa; arsenate concentration 1 mM
Method: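 Cellular thermal proteome profiling in HeLa cells treated with 1 mM arsenate for 1 h (DMSO pretreatment), heated to ten temperatures (37-66.3 °C). Soluble protein was quantified by TMT mass spectrometry relative to DMSO controls; the thermal stability score was transformed to a z-score; mean of n = 3 experiments.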

[1] = arsenate co-treatment: 1 mM arsenate 1 h
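Note: each temperature applied for 3 min, abundance score taken as mean log2 fold change at the two lowest temperatures, z-score obtained by mean subtraction and division by SD.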

UniProt P23634, sequence (P23634 whole entry): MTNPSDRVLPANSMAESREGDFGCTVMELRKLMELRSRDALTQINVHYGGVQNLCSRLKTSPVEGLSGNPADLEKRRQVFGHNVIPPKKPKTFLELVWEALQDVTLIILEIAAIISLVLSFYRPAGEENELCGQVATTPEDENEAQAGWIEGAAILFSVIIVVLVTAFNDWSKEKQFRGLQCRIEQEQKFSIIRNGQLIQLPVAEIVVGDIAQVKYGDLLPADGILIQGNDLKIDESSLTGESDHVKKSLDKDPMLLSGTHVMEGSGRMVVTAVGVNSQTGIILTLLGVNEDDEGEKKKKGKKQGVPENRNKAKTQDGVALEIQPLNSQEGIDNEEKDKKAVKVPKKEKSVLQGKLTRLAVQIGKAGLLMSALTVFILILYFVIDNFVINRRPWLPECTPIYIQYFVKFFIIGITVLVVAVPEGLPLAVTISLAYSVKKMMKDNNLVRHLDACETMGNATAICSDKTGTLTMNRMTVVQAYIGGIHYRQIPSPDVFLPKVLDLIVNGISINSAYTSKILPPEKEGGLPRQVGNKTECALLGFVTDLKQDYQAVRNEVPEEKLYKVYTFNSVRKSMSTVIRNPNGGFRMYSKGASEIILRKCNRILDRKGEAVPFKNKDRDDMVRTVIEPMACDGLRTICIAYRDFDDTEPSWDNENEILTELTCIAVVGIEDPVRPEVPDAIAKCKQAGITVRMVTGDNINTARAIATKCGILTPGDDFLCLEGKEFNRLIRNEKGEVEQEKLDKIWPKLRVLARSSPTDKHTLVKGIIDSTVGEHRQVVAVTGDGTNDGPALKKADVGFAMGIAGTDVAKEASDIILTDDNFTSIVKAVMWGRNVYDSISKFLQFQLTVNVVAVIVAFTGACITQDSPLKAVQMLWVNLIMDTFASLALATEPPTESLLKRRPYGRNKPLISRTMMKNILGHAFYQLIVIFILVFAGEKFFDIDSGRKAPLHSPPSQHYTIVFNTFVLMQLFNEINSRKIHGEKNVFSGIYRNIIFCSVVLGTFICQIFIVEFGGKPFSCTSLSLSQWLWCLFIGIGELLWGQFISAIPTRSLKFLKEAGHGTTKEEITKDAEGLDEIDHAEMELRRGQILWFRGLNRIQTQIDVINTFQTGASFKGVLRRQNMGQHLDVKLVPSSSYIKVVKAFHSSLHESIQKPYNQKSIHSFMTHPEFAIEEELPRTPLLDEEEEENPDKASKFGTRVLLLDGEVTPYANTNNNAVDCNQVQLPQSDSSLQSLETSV
UniProt Q99447, sequence (Q99447 whole entry): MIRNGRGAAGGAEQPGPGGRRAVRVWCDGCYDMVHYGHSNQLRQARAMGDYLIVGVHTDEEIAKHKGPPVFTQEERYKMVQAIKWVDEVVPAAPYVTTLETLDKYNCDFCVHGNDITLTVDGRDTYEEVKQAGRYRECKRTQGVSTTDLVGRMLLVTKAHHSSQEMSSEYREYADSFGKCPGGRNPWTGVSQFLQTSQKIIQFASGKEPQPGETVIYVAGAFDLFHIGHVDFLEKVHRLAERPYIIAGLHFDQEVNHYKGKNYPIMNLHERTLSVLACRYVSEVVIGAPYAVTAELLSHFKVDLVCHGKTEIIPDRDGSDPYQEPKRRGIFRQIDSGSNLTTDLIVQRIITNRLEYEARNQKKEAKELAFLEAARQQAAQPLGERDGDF
UniProt Q5TF39, sequence (Q5TF39 whole entry): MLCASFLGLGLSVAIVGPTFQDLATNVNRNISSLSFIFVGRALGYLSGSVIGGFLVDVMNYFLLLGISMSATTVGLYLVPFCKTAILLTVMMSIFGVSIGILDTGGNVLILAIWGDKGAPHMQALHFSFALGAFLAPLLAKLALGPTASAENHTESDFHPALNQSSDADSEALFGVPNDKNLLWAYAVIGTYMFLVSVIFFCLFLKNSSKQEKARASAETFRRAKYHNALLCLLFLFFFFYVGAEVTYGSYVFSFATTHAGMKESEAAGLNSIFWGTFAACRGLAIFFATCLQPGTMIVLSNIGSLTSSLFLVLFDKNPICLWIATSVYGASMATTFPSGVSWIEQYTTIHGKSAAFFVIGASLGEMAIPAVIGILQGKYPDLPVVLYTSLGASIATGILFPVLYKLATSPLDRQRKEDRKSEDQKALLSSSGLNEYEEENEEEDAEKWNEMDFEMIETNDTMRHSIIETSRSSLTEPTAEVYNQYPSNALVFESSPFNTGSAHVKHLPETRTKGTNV
UniProt Q8IX18, sequence (Q8IX18 whole entry): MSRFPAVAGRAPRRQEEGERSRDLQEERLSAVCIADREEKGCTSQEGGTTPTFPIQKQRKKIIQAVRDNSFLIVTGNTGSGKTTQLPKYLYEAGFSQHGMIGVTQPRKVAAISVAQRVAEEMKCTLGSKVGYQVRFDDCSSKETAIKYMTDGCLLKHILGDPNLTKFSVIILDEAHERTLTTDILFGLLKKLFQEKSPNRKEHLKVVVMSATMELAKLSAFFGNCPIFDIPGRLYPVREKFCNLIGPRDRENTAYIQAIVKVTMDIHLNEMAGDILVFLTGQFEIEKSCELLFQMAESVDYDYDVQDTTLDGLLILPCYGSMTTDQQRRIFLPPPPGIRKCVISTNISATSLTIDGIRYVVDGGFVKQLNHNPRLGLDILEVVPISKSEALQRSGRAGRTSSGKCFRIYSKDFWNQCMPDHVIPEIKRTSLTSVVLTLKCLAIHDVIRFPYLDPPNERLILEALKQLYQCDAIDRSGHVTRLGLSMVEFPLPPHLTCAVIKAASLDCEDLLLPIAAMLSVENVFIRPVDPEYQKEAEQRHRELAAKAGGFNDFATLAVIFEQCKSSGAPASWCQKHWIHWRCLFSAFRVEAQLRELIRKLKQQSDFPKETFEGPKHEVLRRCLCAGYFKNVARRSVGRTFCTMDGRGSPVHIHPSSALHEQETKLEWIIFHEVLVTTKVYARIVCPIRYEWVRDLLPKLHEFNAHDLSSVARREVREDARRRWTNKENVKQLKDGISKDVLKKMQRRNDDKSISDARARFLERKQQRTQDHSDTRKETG
UniProt O14908, sequence (O14908 whole entry): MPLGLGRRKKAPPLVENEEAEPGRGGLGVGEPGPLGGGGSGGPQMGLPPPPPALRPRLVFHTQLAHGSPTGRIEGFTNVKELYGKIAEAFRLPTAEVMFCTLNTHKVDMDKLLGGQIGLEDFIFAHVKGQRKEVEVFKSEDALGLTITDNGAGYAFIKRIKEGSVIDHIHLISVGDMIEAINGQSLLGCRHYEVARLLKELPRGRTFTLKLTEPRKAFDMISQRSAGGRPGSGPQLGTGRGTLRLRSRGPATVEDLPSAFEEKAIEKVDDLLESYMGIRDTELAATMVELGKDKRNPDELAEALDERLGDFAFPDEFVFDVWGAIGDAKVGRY
UniProt Q9NQ88, sequence (Q9NQ88 whole entry): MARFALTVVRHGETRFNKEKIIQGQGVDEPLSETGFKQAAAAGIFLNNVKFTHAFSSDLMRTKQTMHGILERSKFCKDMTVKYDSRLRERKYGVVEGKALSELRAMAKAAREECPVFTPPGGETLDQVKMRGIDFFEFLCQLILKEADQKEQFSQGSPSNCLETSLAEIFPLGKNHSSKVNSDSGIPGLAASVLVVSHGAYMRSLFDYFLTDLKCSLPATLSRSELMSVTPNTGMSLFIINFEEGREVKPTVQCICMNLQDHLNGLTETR
UniProt P28072, sequence (P28072 whole entry): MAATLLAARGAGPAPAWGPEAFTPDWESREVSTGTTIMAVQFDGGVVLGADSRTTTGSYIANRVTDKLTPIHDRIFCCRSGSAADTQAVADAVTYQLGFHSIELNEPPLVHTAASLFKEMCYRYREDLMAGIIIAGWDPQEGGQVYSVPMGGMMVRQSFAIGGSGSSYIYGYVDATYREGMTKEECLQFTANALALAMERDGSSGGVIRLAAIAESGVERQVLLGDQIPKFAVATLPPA
UniProt O95208, sequence (O95208 whole entry): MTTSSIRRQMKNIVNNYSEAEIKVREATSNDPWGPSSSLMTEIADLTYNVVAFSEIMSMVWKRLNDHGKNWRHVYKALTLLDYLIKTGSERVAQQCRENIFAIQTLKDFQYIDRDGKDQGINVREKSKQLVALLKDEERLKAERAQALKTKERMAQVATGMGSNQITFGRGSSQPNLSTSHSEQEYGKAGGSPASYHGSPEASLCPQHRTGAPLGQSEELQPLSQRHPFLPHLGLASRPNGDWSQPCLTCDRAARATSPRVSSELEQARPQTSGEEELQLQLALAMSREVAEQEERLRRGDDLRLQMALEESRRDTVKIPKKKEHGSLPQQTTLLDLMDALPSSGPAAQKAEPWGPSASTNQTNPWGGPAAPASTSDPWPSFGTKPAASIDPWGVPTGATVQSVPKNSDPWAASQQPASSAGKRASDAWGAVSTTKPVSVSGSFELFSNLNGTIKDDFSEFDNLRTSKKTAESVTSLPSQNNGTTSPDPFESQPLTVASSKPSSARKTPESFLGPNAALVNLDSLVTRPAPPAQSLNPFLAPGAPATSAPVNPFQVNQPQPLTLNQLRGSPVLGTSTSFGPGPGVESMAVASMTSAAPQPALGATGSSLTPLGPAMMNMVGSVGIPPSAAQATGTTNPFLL
UniProt Q9BRT2, sequence (Q9BRT2 whole entry): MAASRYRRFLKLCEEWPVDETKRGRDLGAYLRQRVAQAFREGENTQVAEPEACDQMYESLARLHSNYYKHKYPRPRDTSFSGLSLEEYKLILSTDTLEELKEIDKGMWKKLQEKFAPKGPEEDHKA
UniProt P55081, sequence (P55081 whole entry): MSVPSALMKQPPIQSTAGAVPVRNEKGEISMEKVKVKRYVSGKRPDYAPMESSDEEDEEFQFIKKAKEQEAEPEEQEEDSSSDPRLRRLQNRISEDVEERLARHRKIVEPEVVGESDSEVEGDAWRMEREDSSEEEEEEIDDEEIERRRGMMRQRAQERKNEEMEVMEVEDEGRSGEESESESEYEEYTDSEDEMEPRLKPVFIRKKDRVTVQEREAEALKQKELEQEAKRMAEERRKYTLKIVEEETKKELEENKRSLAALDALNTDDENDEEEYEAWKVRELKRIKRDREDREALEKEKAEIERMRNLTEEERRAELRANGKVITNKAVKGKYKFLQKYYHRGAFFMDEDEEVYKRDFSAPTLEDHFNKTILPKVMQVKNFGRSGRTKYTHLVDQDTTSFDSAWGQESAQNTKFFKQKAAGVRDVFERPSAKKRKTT

Target	thermal stability z-score (lipoamide; [1])	thermal stability z-score (lipoamide; arsenate co-treatment: none)	thermal stability z-score (potassium arsenate)
CMC2 (UniProt Q9NRP2)	0.275	0.104	0.218
RBM8A (UniProt Q9Y5S9)	-0.156	0.28	0.0981
ACTR10 (UniProt Q9NZ32)	-0.106	0.0788	-0.312
CENPH (UniProt Q9H3R5)	-0.976	0.153	0.184
GIPC1 (UniProt O14908)	-0.301	-0.267	-0.251
BRD8 (UniProt Q9H0E9)	0.111	-0.0134	-1.06
SAMM50 (UniProt Q9Y512)	0.182	0.601	1.08
DUSP9 (UniProt Q99956)	0.738	0.0584	0.0461
THUMPD1 (UniProt Q9NXG2)	0.166	0.155	3.08
IST1 (UniProt P53990)	0.453	0.367	0.351
P3H4 (UniProt Q92791)	-4.72	-3.94	0.936
UTP3 (UniProt Q9NQZ2)	0.145	0.194	0.203
LTV1 (UniProt Q96GA3)	0.231	-0.172	1.01
NPM3 (UniProt O75607)	0.175	0.102	-0.95
UQCC2 (UniProt Q9BRT2)	0.0305	-0.239	0.139
HFE (UniProt Q30201)	-0.0165	0.389	0.0645
PCCB (UniProt P05166)	0.673	-0.198	-0.873
PTPN23 (UniProt Q9H3S7)	-0.214	-0.0347	0.691
MARC1 (UniProt Q5VT66)	0.204	0.806	1.12
RNF2 (UniProt Q99496)	-0.111	-0.172	-0.107
TIGAR (UniProt Q9NQ88)	-1.91	0.677	0.655
EXOSC10 (UniProt Q01780)	0.0236	-0.0314	-0.437
TSFM (UniProt P43897)	-0.91	-0.179	-0.0696
MTCH1 (UniProt Q9NZJ7)	-0.143	-0.0871	0.404

Target	thermal stability z-score (lipoamide; [1])	thermal stability z-score (lipoamide; arsenate co-treatment: none)	thermal stability z-score (potassium arsenate)
TBC1D10A (UniProt Q9BXI6)	-0.00261	-0.137	0.0768
SOX13 (UniProt Q9UN79)	-0.169	0.00372	-0.618
DCAF10 (UniProt Q5QP82)	0.0128	0.566	0.0678
RAB2A (UniProt P61019)	0.405	0.206	0.296
CSE1L (UniProt P55060)	0.582	0.825	0.016
UTP15 (UniProt Q8TED0)	0.625	0.147	0.528
MFAP1 (UniProt P55081)	0.755	0.245	1.73
RPP25 (UniProt Q9BUL9)	-0.534	-0.856	-1.34
PPA1 (UniProt Q15181)	1.07	0.424	-0.342
ATP2B4 (UniProt P23634)	-0.147	-0.0358	-1.05
DHRS4 (UniProt Q9BTZ2)	-0.194	-0.173	0.0753
RABGGTB (UniProt P53611)	0.508	-0.0991	1.46
EXOC5 (UniProt O00471)	-0.0743	0.105	-0.0647
PEG10 (UniProt Q86TG7)	-0.289	-0.464	-0.109
DYNC1LI2 (UniProt O43237)	-0.543	-0.166	0.192
DHX40 (UniProt Q8IX18)	0.111	0.0273	-0.0831
MYH10 (UniProt P35580)	0.273	0.19	0.375
SETX (UniProt Q7Z333)	-0.122	-0.0676	-0.00223
FGFR1OP2 (UniProt Q9NVK5)	-0.0532	0.0859	0.0446
CUEDC2 (UniProt Q9H467)	-0.0601	-0.131	0.0094
MFSD4B (UniProt Q5TF39)	-0.227	0.265	-0.129
ASCC3 (UniProt Q8N3C0)	-0.289	-0.167	-0.277
STRN (UniProt O43815)	0.402	0.602	0.345
VPS13D (UniProt Q5THJ4)	0.236	0.0716	-0.13

Target	thermal stability z-score (lipoamide; [1])	thermal stability z-score (lipoamide; arsenate co-treatment: none)	thermal stability z-score (potassium arsenate)
SH2D4A (UniProt Q9H788)	0.0871	0.021	0.112
TRAPPC4 (UniProt Q9Y296)	-0.271	0.0129	-0.0725
MAT2A (UniProt P31153)	-0.418	-0.422	0.337
P1394_HsINTS1|INTS1	-0.0499	-0.0292	0.145
NOL11 (UniProt Q9H8H0)	0.118	0.00868	-0.0716
SH3BGRL3 (UniProt Q9H299)	-0.0209	-0.395	0.000903
FAM207A (UniProt Q9NSI2)	0.062	0.578	0.566
COA1 (UniProt Q9GZY4)	0.229	0.587	0.234
PPME1 (UniProt Q9Y570)	0.126	0.00998	-1.09
PCYT2 (UniProt Q99447)	0.0344	-0.0669	-0.938
CTPS1 (UniProt P17812)	-0.159	-0.286	-0.228
PSMB6 (UniProt P28072)	0.174	0.262	-0.414
PFKM (UniProt P08237)	0.24	0.235	-0.134
EPN2 (UniProt O95208)	1.13	0.804	-0.0882
OS9 (UniProt Q13438)	-3.59	-3.15	0.706
RPLP0 (UniProt P05388)	1.08	0.341	-0.4
PTGFRN (UniProt Q9P2B2)	0.216	0.0155	0.0412
PSMD5 (UniProt Q16401)	0.166	0.024	0.282
ATG4B (UniProt Q9Y4P1)	0.0217	-0.419	-0.73
TTI2 (UniProt Q6NXR4)	-1.12	-0.63	0.0606
TEFM (UniProt Q96QE5)	0.0966	0.0631	0.106
ZNF326 (UniProt Q5BKZ1)	-0.0719	0.0989	0.0996
ATN1 (UniProt P54259)	0.566	0.784	0.759
